Results from PubChem BioAssay AID1645848.
Values after ≈ are worked out from the molar mass of the structure shown.

Details: buffer; pH 7.4; 6.0 h; 150.0 µM

solubility kinetic [µg/mL] | Compound
1.98 (≈ 5.56 µM) | NC(=O)C1CCN(c2nc(-c3ccc(C(F)(F)F)cc3)cs2)CC1
> 84 | C[C@@H](O)CNC(C)(C)CC(=O)N[C@@H]1CCc2ccccc2N(Cc2ccc(-c3ccccc3-c3nn[nH]n3)cc2)C1=O
< 1 | O=C(Nc1ncc(Cc2ccccc2)s1)c1ccc(-c2cccc([N+](=O)[O-])c2)o1
< 1 | CO[C@@H]1[C@H](N(C)C(=O)c2ccccc2)C[C@H]2O[C@]1(C)n1c3ccccc3c3c4c(c5c6ccccc6n2c5c31)C(=O)NC4
< 1 | Cc1ccc(S(=O)(=O)N(C)c2ccccc2C(=O)Nc2nc(-c3ccccc3)cs2)cc1
< 1 | Cc1ccc(S(=O)(=O)Nc2ccc(C(=O)Nc3nc(-c4ccc(Cl)cc4)cs3)cc2)cc1
< 1 | O=C1CCCC2=C1C(c1ccccc1C(F)(F)F)N=C(Nc1nc3ccccc3o1)N2 (stereo not given)
< 1 | COc1ccc(-c2[nH]nc3ncc(-c4ccc(CO)cc4)nc23)cc1F
> 76 | CCCCN(CC)CCCNC(=O)c1ccc2c(c1)N(Cc1ccc(C)cc1)C(=O)c1ccccc1S2
< 1 | Fc1cc(Nc2nc(-c3ccncc3)nc3ccccc23)ccc1-n1cncn1
> 42 | COc1cc2cc(CN3CCC(N(C)C)C3)c(-c3cccc(Cl)c3)nc2cc1OC (stereo not given)
> 67 | Cc1cc(NS(=O)(=O)c2ccc(NC(=O)Cc3ccc(Cl)c(Cl)c3)cc2)n(C)n1
> 48 | Cc1nsc(N)c1C(=O)N(C)CCOc1ccccc1Cl
< 1 | CNC(=O)c1cc(Oc2ccc(NC(=O)Nc3ccc(Cl)c(C(F)(F)F)c3)c(F)c2)ccn1
> 58 | CN1CCN(c2ccc(Nc3nn4c(=O)c5ccccc5nc4s3)cc2)CC1
> 89 | CCN(c1cc(C#CCN2CCOCC2)cc(C(=O)NCc2c(C)cc(C)[nH]c2=O)c1C)C1CCC(N(C)CCOC)CC1 (stereo not given)
24.7 (≈ 59.4 µM) | Cc1cc(C)c(CNC(=O)c2nc(-c3cccc(CO)c3)cc3c2ccn3C)c(=O)[nH]1
> 53 | COc1ccccc1-c1nc(NCc2cnc(C)cn2)c2ccccc2n1
< 1 | Cc1sc(NC(=O)Cc2ccc3c(c2)OCO3)nc1-c1ccc2c(c1)CCN2C(=O)c1ccccc1F
< 1 | CC(C)Nc1oc(-c2cccc3ccccc23)nc1C#N
2.23 (≈ 5.5 µM) | COc1cccc(C(=O)Nc2ccc([S+](=O)([O-])Nc3nccs3)cc2)c1O
> 51 | COc1cc(OC)cc(-c2csc(N3CCC(C(N)=O)CC3)n2)c1
< 1 | CCCSc1nc(N[C@@H]2C[C@H]2c2ccc(F)c(F)c2)c2nnn([C@@H]3C[C@H](OCCO)[C@@H](O)[C@H]3O)c2n1
< 1 | O=C1CCCC2=C1C(c1ccccc1Br)N=C(Nc1nc3ccccc3o1)N2 (stereo not given)

solubility kinetic [µg/mL] | Compound
37.3 (≈ 94.1 µM) | COc1ccc(-n2nc(C3CCCN(C(=O)c4ccccc4F)C3)[nH]c2=O)cc1 (stereo not given)
> 53 | Cc1ccc(C2=CSC(NC(=O)CSc3nncn3C)=NN2)cc1
< 1 | Cc1ccc(S(=O)(=O)Nc2cc(Cl)cc(C(=O)Nc3nc(-c4ccccc4)cs3)c2)cc1
< 1 | CC(C)(C)OC(=O)N[C@@H](Cc1ccc(O[S+](=O)([O-])c2cccc3cnccc23)cc1)C(=O)Nc1ccc(-c2ccccc2)cc1
9.31 (≈ 20.3 µM) | CC(C)(C)OC(=O)N1CCN(c2ccc(NCc3ccc(-c4ccc(C#N)cc4)o3)cc2)CC1
< 1 | CCNC(=O)Nc1ncc(-c2cc(-c3c(C)cc(OC)cc3C)nc(-c3cnccn3)n2)s1
< 1 | Cc1ccccc1S(=O)(=O)N1CCc2cc(-c3nc(NC(=O)Cc4ccc5c(c4)OCO5)sc3C)ccc21
1.22 (≈ 4.27 µM) | Oc1ccc(CNc2ccc(F)cc2F)c2cccnc12
10.4 (≈ 23.9 µM) | CCN1C(=O)c2ccccc2S(=O)c2ccc(C(=O)NCc3ccc(OC)cc3)cc21 (stereo not given)
5.74 (≈ 11 µM) | CCc1ccc(C2C(C(=O)Nc3ccccc3OC)=C(C)Nc3c(C(=O)Nc4ccc(C)cc4)cnn32)cc1 (stereo not given)
13.2 (≈ 38.2 µM) | COCc1cc(C)nc(SCC(=O)c2ccc(O)c(O)c2)c1C#N
> 45 | Cc1noc(C)c1-c1csc(N2CCC(C(N)=O)CC2)n1
1.77 (≈ 6.57 µM) | O=C(Nc1cccc(F)c1)c1cc(-c2ccc[nH]2)n[nH]1
2.73 (≈ 8.08 µM) | CCCNC(=O)c1ccc2c(c1)N=C(C)c1c(C)ccc(C)c1S2
1.62 (≈ 4.05 µM) | CCOc1ccc(CCNC(=O)c2cc3sccc3n2C(C)C)cc1OCC
< 1 | CCc1ccc(S(=O)(=O)Nc2cnccc2C(=O)Nc2nc(-c3ccccc3)cs2)cc1
> 77 | CC[C@@H]1C(=O)N(C)c2cnc(Nc3ccc(C(=O)NC4CCN(C)CC4)cc3OC)nc2N1C1CCCC1
< 1 | CCOc1ccc(-c2nnc(SCC(=O)NCc3ccccc3Cl)o2)cc1
> 51 | CCOC(=O)C1CCN(C(=O)Nc2ccc3c(c2)nc(C)n3C)CC1
3.44 (≈ 10.8 µM) | Cc1cccc(C)c1Nc1c(-c2cccs2)nc2ncccn12
< 1 | COc1cccc(C(=O)Nc2cccc(OCc3cc(=O)n4cccc(C)c4n3)c2)c1
< 1 | Cc1cc(C)c(C(=O)Nc2cccc([S+](=O)([O-])N3CCCCC3)c2)[nH]1
> 67 | CCOC(=O)N1CCN(Cc2nc3c(c(=O)n(C)c(=O)n3C)n2Cc2cccc(C)c2)CC1
< 1 | COc1ccc(N2Cc3cccc(C(=O)Nc4ccc(C(C)C)cc4)c3C2=O)cc1

solubility kinetic [µg/mL] | Compound
< 1 | Cc1ccc(S(=O)(=O)Nc2cccc(C(=O)Nc3nc(-c4ccc(Cl)cc4)cs3)c2)cc1
34.9 (≈ 88.8 µM) | COc1ccc(-n2nc(C3CCCN(C(=O)Nc4ccccc4)C3)[nH]c2=O)cc1 (stereo not given)
> 54 | O=C(c1ccccc1)N1CCC(c2nn(-c3ccc(F)cc3)c(=O)[nH]2)CC1
> 45 | O=C1Nc2ccccc2C1Cc1cc(Cl)c(O)c(Cl)c1 (stereo not given)
44.6 (≈ 93.9 µM) | CC[C@H]1CN2CCC3CC(OC)C(OC)CC3[C@@H]2C[C@@H]1C[C@H]1NCCC2=C1CC(OC)=C(O)C2 (stereo not given in full)
< 1 | Fc1cc(Nc2nc(-c3ccncc3)nc3ccccc23)ccc1-c1cn[nH]c1
< 1 | COc1cc2c(cc1NC(=O)COc1ccc(Cl)cc1)oc1ccccc12
16.7 (≈ 30.7 µM) | CNC1CCC(N(Cc2ccc(OC)c(-c3ccc(C#N)cc3)c2)C(=O)c2sc3ccccc3c2Cl)CC1 (stereo not given)
< 1 | Cc1ccc2c(c1)[nH]c1c(N3CCN(Cc4ccccc4)CC3)ncnc12
> 52 | O=C(Nc1ccc([S+](=O)([O-])Nc2nccs2)cc1)c1ncn[nH]1
4.39 (≈ 13.3 µM) | O=S(=O)(c1ccccc1)N1CCCCC1CCc1ccccc1 (stereo not given)
10 (≈ 20.1 µM) | CC(=O)N1CCc2c(sc3c2c(=O)n(-c2ccccc2)c(=O)n3Cc2cccc(C(F)(F)F)c2)C1
< 1 | c1cc(-c2cc(-c3ccncc3)c3cncn3c2)c2[nH]ccc2c1
46.5 (≈ 118 µM) | CN(C)c1cccc(-c2c3c(=O)n(-c4ccccc4Cl)[nH]c3cc(=O)n2C)c1
< 1 | CC(C)NC(=O)C1CCN(C(=O)c2cc3sccc3n2Cc2ccc(Cl)cc2)CC1
1.48 (≈ 3.12 µM) | CCOc1ccc(CNC(=O)CCCn2nc(C)c3c(C)n(-c4ccc(C)cc4)nc3c2=O)cc1
> 40 | O=C1Nc2ccccc2/C1=C\c1cc(F)c(O)c(F)c1
< 1 | NC(=O)C1CCN(c2nc(-c3ccc(OCc4ccccc4)cc3)cs2)CC1
> 67 | COc1ccc(-c2nc3ncccc3[nH]2)cc1
28.1 | Cc1ccc(Nc2nc(NCCO)c3ccccc3n2)cc1C.Cl
17.5 (≈ 50.5 µM) | COc1ccc(-c2csc(N3CCC(C(N)=O)CC3)n2)cc1OC
< 1 | Clc1ccccc1CSc1nc2ncc(Br)cc2[nH]1
0.521 (≈ 1.06 µM) | Cc1ccc(S(=O)(=O)Nc2cnccc2C(=O)Nc2nc(-c3cc4ccccc4o3)cs2)cc1
2.41 (≈ 6.78 µM) | NC(=O)C1CCN(c2nc(-c3cccc(C(F)(F)F)c3)cs2)CC1

solubility kinetic [µg/mL] | Compound
45.6 (≈ 116 µM) | Nc1nc(Nc2ccc(S(N)(=O)=O)cc2)nn1C(=O)c1c(F)cccc1F
> 63 | Cc1ccc(S(=O)(=O)Nc2cnccc2C(=O)Nc2ccc(S(=O)(=O)Nc3nccs3)cc2)cc1
> 56 | Cc1ccccc1C(=O)NC1CCN(c2ccc3nnc(C4CC4)n3n2)CC1
< 1 | Cc1ccc(C(=O)Nc2ccc(CN3CCN(C)CC3)c(C(F)(F)F)c2)cc1C#Cc1cnc2cccnn12
> 61 | COc1ccc(-n2nc(C3CCCN(C(=O)Cc4ccc(F)cc4)C3)[nH]c2=O)cc1 (stereo not given)
< 1 | COC(=O)c1ccc2c(C(=Nc3ccc(N(C)C(=O)CN4CCN(C)CC4)cc3)c3ccccc3)c(O)[nH]c2c1
1.26 (≈ 3.79 µM) | Fc1ccc(Nc2nc(-c3ccncc3)cc3ccccc23)cc1F
< 1 | COc1nccc(-c2nc(Nc3ccc(F)c(F)c3)c3ccccc3n2)c1OC
> 58 | O=C(O)CCNc1cc(N2CCc3ccccc3CC2)nc(-c2ccccn2)n1
33 (≈ 94 µM) | Cc1c(C)n(Cc2ccccc2)c2ccc(C(=O)OCCN(C)C)cc12
< 1 | O=C1Nc2ccc(-c3cccc(C(F)(F)F)c3)cc2C(=O)N2CCN(C(=O)COc3ccccc3)C[C@H]12
> 56 | CCOC(=O)c1ccc(-n2cnc3cc(C(=O)N4CCCCC4)ccc32)cc1
< 1 | CCC1=Nc2cc(C(=O)NC3CCCC3)ccc2Sc2ccc(Cl)cc21
< 1 | Cc1ccc(S(=O)(=O)Nc2ccccc2C(=O)Nc2cnc(-c3ccccc3)cn2)cc1
< 1 | Fc1ccc(Nc2nc(-c3ccnc(C(F)(F)F)c3)nc3ccccc23)cc1F
> 74 | O=C1CCC(CNC(=O)c2nc(-c3ccccc3)cc3[nH]ccc23)N1 (stereo not given)
> 65 | Cc1cc(NS(=O)(=O)c2ccc(NC(=O)Cc3ccc(Cl)c(Cl)c3)cc2)no1
51.1 (≈ 109 µM) | COc1cccc(CNc2ccc(S(=O)(=O)Nc3cccc(N4CCNCC4)c3)cc2)c1O
< 1 | CCc1cccc(CC)c1-n1c(C=C(C)C)c(C(=O)N2CCNCC2)cc(-c2nc(-c3ccc(C(F)(F)F)cc3)cs2)c1=O
> 40 | NC1CCN(C(=O)C2CCCN(c3nc(-c4ccccc4)nc4c3CCC4)C2)CC1 (stereo not given)
2.64 (≈ 8.5 µM) | C#CCNC(=O)c1nc(-c2ccc(Cl)nc2)c2ccccn12
4.18 (≈ 9.31 µM) | CCOc1ccc(CCNC(=O)c2cc3sccc3n2Cc2ccncc2)cc1OCC

Compound | solubility kinetic [µg/mL]
CCOc1ccc(CCNC(=O)c2cc3cnccc3n2Cc2cccc(C)n2)cc1OCC | > 68
